Measurements taken from BindingDB's records for patent US9610299 (Gilead Sciences, 2017).

Columns and labels:
[1] = target: T1, Aldehyde dehydrogenase, mitochondrial (Homo sapiens, UniProt P05091); test: ALDH2 Assay
T1 sequence (P05091 whole entry): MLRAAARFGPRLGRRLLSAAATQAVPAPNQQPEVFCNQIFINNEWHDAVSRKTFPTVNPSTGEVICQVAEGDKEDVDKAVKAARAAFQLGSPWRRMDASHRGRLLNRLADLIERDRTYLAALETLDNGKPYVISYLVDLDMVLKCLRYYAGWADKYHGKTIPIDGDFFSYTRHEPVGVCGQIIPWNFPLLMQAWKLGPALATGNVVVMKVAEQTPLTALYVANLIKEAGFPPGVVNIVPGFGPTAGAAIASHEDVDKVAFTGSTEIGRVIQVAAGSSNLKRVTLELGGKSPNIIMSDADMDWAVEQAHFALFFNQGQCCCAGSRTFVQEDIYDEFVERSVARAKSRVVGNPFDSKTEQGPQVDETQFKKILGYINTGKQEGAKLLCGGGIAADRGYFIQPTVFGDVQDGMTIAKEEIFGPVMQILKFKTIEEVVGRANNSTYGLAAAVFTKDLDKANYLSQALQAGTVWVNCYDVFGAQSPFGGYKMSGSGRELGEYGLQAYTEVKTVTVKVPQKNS
Procedure: Standard ALDH2 reaction mixtures contained 150 uM formaldehyde, 2.5 mM NAD+, 10 mM MgCl2 and 10 nM recombinant human ALDH2 in 50 mM Hepes buffer, pH 7.4, 0.01% Tween 20 in a final volume of 50 ul using 384-well plates. After 60 min of pre-incubation of compound with ALDH2 and formaldehyde, the reaction was started by adding NAD+ and the reaction mixture was allowed to proceed for 90 minutes. Activity of the enzyme was determined by monitoring NADH formation using Perkin-Elmer Envision Reader with excitation and emission wavelengths set at 340 and 460 nm, respectively.

[2] = target: T2, Amine oxidase [flavin-containing] B (Homo sapiens, UniProt P27338); test: MAO-A and MAO-B Assay
T2 sequence (P27338 whole entry): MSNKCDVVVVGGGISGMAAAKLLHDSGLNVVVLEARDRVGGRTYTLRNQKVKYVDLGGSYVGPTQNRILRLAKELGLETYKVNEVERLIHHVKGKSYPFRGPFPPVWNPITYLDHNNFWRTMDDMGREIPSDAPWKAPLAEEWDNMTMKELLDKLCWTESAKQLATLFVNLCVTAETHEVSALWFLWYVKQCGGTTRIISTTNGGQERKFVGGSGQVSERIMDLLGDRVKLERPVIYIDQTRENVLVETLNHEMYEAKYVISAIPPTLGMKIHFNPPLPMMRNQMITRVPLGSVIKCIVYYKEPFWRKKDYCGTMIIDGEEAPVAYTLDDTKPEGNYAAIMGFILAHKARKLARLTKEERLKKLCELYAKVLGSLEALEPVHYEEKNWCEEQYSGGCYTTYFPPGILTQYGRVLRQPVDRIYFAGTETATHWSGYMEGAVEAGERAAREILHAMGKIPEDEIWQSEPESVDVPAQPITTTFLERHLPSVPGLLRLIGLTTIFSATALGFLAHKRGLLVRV
Procedure: (§1) MAO assays included luminogenic MAO substrate, reaction buffers, Luciferin Detection and the reconstitution buffer with esterase. Standard MAO reaction mixtures included microsome contained MAO-A (2 ug) or MAO-B (10 ug), 160 uM substrate for MAO-A or 16 uM substrate for MAO-B, MAO-A buffer (100 mM Hepes buffer, pH 7.5, 5% glycerol) or MAO-B buffer (100 mM Hepes, pH 7.5, 5% glycerol, 10% dimethyl sulfoxide) in a final volume of 30 ul. After 20 minutes of pre-incubation of the enzyme with compounds, the reaction was initiated by adding enzyme substrate and the reaction was allowed to proceed for 60 minutes. Reconstituted Luciferin Detection Reagent (30 ul) was then added is added to simultaneously stop the MAO reaction and convert the methyl ester derivative to luciferin and produce light. The amount of light produced is directly proportional to the activity of MAO. The mixtures were further incubated for 20 minutes and activity of the enzyme was determined using Perkin-Elmer Envision Reader.

[3] = target: T3, Amine oxidase [flavin-containing] A (Homo sapiens, UniProt P21397); test: MAO-A and MAO-B Assay
T3 sequence (P21397 whole entry): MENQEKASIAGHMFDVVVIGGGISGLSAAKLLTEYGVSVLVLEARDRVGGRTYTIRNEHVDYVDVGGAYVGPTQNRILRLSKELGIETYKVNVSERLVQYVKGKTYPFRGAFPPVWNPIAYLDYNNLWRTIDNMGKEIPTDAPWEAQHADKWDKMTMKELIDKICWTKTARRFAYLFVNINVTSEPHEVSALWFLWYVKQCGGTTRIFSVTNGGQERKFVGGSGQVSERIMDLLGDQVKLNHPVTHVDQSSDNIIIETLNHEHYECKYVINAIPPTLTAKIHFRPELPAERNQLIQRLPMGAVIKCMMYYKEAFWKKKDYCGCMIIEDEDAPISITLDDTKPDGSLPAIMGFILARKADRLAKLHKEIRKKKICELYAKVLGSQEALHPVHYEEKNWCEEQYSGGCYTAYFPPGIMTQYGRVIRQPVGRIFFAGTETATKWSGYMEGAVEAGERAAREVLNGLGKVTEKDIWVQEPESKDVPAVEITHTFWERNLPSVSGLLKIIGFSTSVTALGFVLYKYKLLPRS
Procedure: as §1

- IC50 [1]: 1.11 µM
- IC50 [2]: > 130 µM
- IC50 [3]: > 130 µM
SMILES: Cc1cccc(C)c1C(=O)NCc1ccc(C2CCNC(=O)C2)cc1 (stereo not drawn) [US9610299, Example 6]
